We go through 30 compounds from US7834024B2, “Compositions and methods for inhibition of the JAK pathway” (Rigel Pharmaceuticals, Inc., priority 2007, dated 2010).

pIC50: −log10 of the molar value. Where a name gives a salt, the structure may show the parent alone.

As usually defined, the pIC50 is the negative decadic logarithm of the IC50, by convention in mol/L.

One assay has as its system Ramos B-Cell Line Stimulated with IL-4 (JAK-1 and JAK-3 / Stat-6, CD23). Description: Assay for Ramos B-Cell Line Stimulated with IL-4 (CD23 upregulation, FACS). It is filed as cell-based. As to conditions: Homo sapiens, Ramos, human Ramos B cells, compound 1 hour, IL-4 50 units/mL for 20-24 hours, anti-CD23-PE FACS; read-out: Example 2 (IC50). An excerpt:
One means of assaying for such inhibition is detection of the effect of the 2,4-pyrimidinediamine compounds on the upregulation of downstream gene products. In the Ramos/IL4 assay, B-cells are stimulated with the cytokine Interleukin-4 (IL-4) leading to the activation of the JAK/Stat pathway through phosphorylation of the JAK family kinases, JAK1 and JAK3, which in turn phosphorylate and activate the transcription factor Stat-6. […] To study the effect of inhibitors (e.g., the 2,4-substituted pyrimindinediamine compounds described herein) on the JAK1 and JAK3 kinases, human Ramos B cells are stimulated with human IL-4. 20 to 24 hours post stimulation, cells are stained for upregulation of CD23 and analyzed using flow cytometry (FACS).
B-cells stimulated with cytokine Interleukin-4 (IL-4) activate the JAK/Stat pathway through phosphorylation of the JAK family kinases, JAK-1 and JAK-3, which in turn phosphorylate and activate the transcription factor Stat-6. […] To study the effect of inhibitors on the JAK family kinases, human Ramos B cells were stimulated with human IL-4.
Cells were maintained at a density of 3.5×10^5. The day before the experiment, Ramos B-cells were diluted to 3.5×10^5 cells/mL to ensure that they were in a logarithmic growth phase.
Cells were spun down and suspended in RPMI with 5% serum. 5×10^4 cells were used per point in a 96-well tissue culture plate. Cells were pre-incubated with compound or DMSO (Sigma-Aldrich, St. Louis, Mo., Cat No. D2650) vehicle control for 1 hour in a 37° C. incubator. Cells were then stimulated with IL-4 (Peprotech Inc., Rocky Hill, N.J., Cat No. 200-04) for a final concentration of 50 units/mL for 20-24 hours. […] Detection was performed using a BD LSR I System Flow Cytometer, purchased from Becton Dickinson Biosciences of San Jose, Calif.
In the case of `CN1CCN(c2ccc(Nc3ncc(F)c(Nc4cccc(OCC(N)=O)c4)n3)cc2C(N)=O)CC1` [Compound I-50, N4-(3-Aminocarbonylmethoxyphenyl)-N2-[3-aminocarbonyl-4-(4-methylpiperazin-1-yl)phenyl]-5-fluoro-2,4-pyrimidinediamine], the pIC50 was 6.74.

Consider `CC(C#N)Oc1ccc(Nc2nc(Nc3cccc(C(N)=O)c3)ncc2F)cc1` (stereo not drawn) [Compound I-82, N2-(3-Aminocarbonylphenyl)-N4-[4-(1-cyanoethoxy)phenyl]-5-fluoro-2,4-pyrimidinediamine], for which the pIC50 is 6.46.

`N#CCOc1ccc(Nc2nc(Nc3cccc(C#N)c3)ncc2F)cc1` [Compound I-30, N4-(4-Cyanomethoxyphenyl)-N2-(3-cyanophenyl)-5-fluoro-2,4-pyrimidinediamine]: the pIC50 is 7.15.

For the compound `Cc1noc(CCc2ccc(Nc3nc(Nc4ccc(CCC#N)cc4)ncc3F)cc2)n1` [Compound I-121, 5-Fluoro-N4-[4-(2-(3-methyl-1,2,4-oxadiazol-5-yl)ethyl)phenyl]-N2-[4-(2-cyanoethyl)phenyl]-2,4-pyrimidinediamine], the pIC50 is 5.67.

`C#CCOc1ccc(Nc2nc(Nc3ccc4c(c3)C(=O)NCC4)ncc2F)cc1` [Compound V-2, 5-Fluoro-N2-(1-oxo-1,2,3,4-tetrahydroisoquinolin-7-yl)-N4-[4-(2-propynyloxy)phenyl]-2,4-pyrimidinediamine]: the pIC50 was 6.45.

Regarding `NC(=O)COc1ccc(Nc2nc(Nc3ccc(C(N)=O)cc3)ncc2F)cc1` [Compound I-25, N4-(4-Aminocarbonylmethoxyphenyl)-N2-(4-aminocarbonylphenyl)-5-fluoro-2,4-pyrimidinediamine], the pIC50 is 6.38.

For `N#CCc1ccc(Nc2ncc(F)c(Nc3ccc(CC#N)cc3)n2)cc1` [Compound I-71, N2,N4-Bis(4-cyanomethylphenyl)-5-fluoro-2,4-pyrimidinediamine], the pIC50 is 6.71.

In the case of `COc1ccc(Nc2nc(Nc3ccc4oc(C(=O)NCCN5CCOCC5)cc4c3)ncc2F)cc1Cl` [III-1, N4-(3-Chloro-4-methoxyphenyl)-5-fluoro-N2-[2-(2-(N-morpholinyl)ethylaminocarbonyl)benzofuran-5-yl]-2,4-pyrimidinediamine], the pIC50 is 6.82.

In the case of `CNC(=O)COc1cc(Nc2ncc(F)c(Nc3ccc4c(c3)NC(=O)C(F)(F)O4)n2)ccc1OC` [II-34, N4-(2,2-Difluoro-3-oxo-4H-benzo[1,4]oxazin-6-yl)-5-fluoro-N2-[4-methoxy-3-(N-methylaminocarbonylmethoxy)phenyl]-2,4-pyrimidinediamine], the pIC50 is 6.41.

In the case of `Cc1noc(CCc2ccc(Nc3nc(Nc4ccc(CC#N)cc4)ncc3F)cc2)n1` [Compound I-120, N2-(4-Cyanomethylphenyl)-5-fluoro-N4-[4-(2-(3-methyl-1,2,4-oxadiazol-5-yl)ethyl)phenyl]-2,4-pyrimidinediamine], the negative logarithm of the IC50 (pIC50) is 5.71.

For `Cc1noc(COc2ccc(Nc3nc(Nc4ccc(CC#N)cc4)ncc3F)c(C)c2)n1` [Compound I-115, N2-(4-Cyanomethylphenyl)-5-fluoro-N4-[2-methyl-4-((3-methyl-1,2,4-oxadiazol-5-yl)methoxy)phenyl]-2,4-pyrimidinediamine], the pIC50 is 6.59.

Take `N#CCc1ccc(Nc2ncc(F)c(Nc3ccc(F)c(Cl)c3)n2)cc1` [Compound I-117, N4-(3-Chloro-4-fluorophenyl)-N2-(4-cyanomethylphenyl)-5-fluoro-2,4-pyrimidinediamine]: the pIC50 is 5.17.

For the compound `Cc1cc(Nc2nc(Nc3ccc(C(N)=O)cc3)ncc2F)cc(C)c1OC(C)C#N` (stereo not drawn) [Compound I-95, N2-(4-Aminocarbonylphenyl)-N4-[4-(1-cyanoethoxy)-3,5-dimethylphenyl]-5-fluoro-2,4-pyrimidinediamine], the pIC50 is 6.99.

`N#Cc1cccc(Nc2ncc(F)c(Nc3ccc(OCC(N)=O)cc3)n2)c1` [Compound I-22, N4-(4-Aminocarbonylmethoxyphenyl)-N2-(3-cyanophenyl)-5-fluoro-2,4-pyrimidinediamine]: the negative-log IC50 (pIC50) was 6.05.

For the compound `N#CCOc1ccc(Nc2nc(Nc3cccc(C(N)=O)c3)ncc2F)cc1Cl` [Compound I-99, N2-(3-Aminocarbonylphenyl)-N4-(3-chloro-4-cyanomethoxyphenyl)-5-fluoro-2,4-pyrimidinediamine], the pIC50 is 6.81.

As for `CN1CCN(C(=O)c2ccc(Nc3ncc(F)c(Nc4ccc(OCC(N)=O)cc4)n3)cc2)CC1` [Compound I-36, N4-(4-Aminocarbonylmethoxyphenyl)-5-fluoro-N2-[4-((4-methylpiperazin-1-yl)carbonyl)phenyl]-2,4-pyrimidinediamine], the pIC50 is 5.52.

In the case of `CC(C)OC(=O)COc1ccc(Nc2nc(Nc3ccc(C(=O)N4CCN(C)CC4)cc3)ncc2F)cc1` [Compound I-26, 5-Fluoro-N4-[4-((1-methylethoxy)carbonylmethoxy)phenyl]-N2-[4-((4-methylpiperazin-1-yl)carbonyl)phenyl]-2,4-pyrimidinediamine], the pIC50 is 5.74.

The same assay, now with this note: human Ramos B cells, compound 1 hour, IL-4 50 units/mL for 20-24 hours, anti-CD23-PE FACS; read-out: Example 2 (IC50).
Consider `Cc1noc(COc2ccc(Nc3nc(Nc4ccc(C(N)=O)cc4)ncc3F)cc2)n1` [Compound I-10, N2-(4-Aminocarbonylphenyl)-5-fluoro-N4-[4-((3-methyl-1,2,4-oxadiazol-5-yl)methyleneoxy)phenyl]-2,4-pyrimidinediamine Hydrogen Chloride Salt], for which the negative-log IC50 (pIC50) was 8.31.

On to “N2-(4-Chloro-3-cyano-5-ethyl phenyl)-N4-(2,2-dimethyl-3-oxo-4H-5-pyrido[1,4]oxazin-6-yl)-5-fluoro-2,4-pyrimidinediamine [II-26]”, for which the negative-log IC50 (pIC50) is 4.79.

With “N2-[2,3-Dihydro-1-(2-(N-morpholinyl)ethylaminocarbonyl)-1H-indol-6-yl]-N4-[4-(2-propynyloxy)phenyl]-2,4-pyrimidinediamine [VI-1]”, the pIC50 was 6.00.

Turning to `CN1CCN(C(=O)c2ccc(Nc3ncc(F)c(Nc4cccc(OCC#N)c4)n3)cc2)CC1` [Compound I-52, N4-(3-Cyanomethoxyphenyl)-5-fluoro-N2-[4-((4-methylpiperazin-1-yl)carbonyl)phenyl]-2,4-pyrimidinediamine], the pIC50 is 6.54.

Regarding `CC(C#N)Oc1ccc(Nc2nc(Nc3ccc(C#N)cc3)ncc2F)cc1` (stereo not drawn) [Compound I-79, N4-[4-(I-Cyanoethoxy)phenyl]-N2-(4-cyanophenyl)-5-fluoro-2,4-pyrimidinediamine], the pIC50 is 6.44.

Turning to `Cc1cnc(Nc2cccc(C(N)=O)c2)nc1Nc1ccc(OCc2ccccn2)cc1` [Compound I-134, N2-(3-Aminocarbonylphenyl)-5-methyl-N4-[4-(2-pyridinylmethyleneoxy)phenyl]-2,4-pyrimidinediamine], the pIC50 was 7.07.

With “N2-[1-(2-(N-Morpholinyl)ethylaminocarbonyl)-1H-indol-6-yl]-N4-[4-(2-propynyloxy)phenyl]-2,4-pyrimidinediamine [VI-2]”, the pIC50 is 6.00.

Consider `Cc1cnc(Nc2cccc(C(N)=O)c2)nc1Nc1ccc2c(c1)NC(=O)CO2` [II-38, N2-(3-Aminocarbonylphenyl)-N4-(3,4-dihydro-2H-3-oxo-4H-benz[1,4]oxazin-6-yl)-5-methyl-2,4-pyrimidinediamine], for which the negative logarithm of the IC50 (pIC50) is 6.75.

As to `Cc1noc(COc2ccc(N(C)c3nc(Nc4cccc(C#N)c4)ncc3F)cc2)n1` [Compound I-17, N2-(3-Cyanophenyl)-5-fluoro-N4-methyl-N4-[4-((3-methyl-1,2,4-oxadiazol-5-yl)methyleneoxy)phenyl]-2,4-pyrimidinediamine], the negative logarithm of the IC50 (pIC50) was 5.75.

Turning to `CNC(=O)COc1cccc(Nc2ncc(F)c(Nc3ccc4c(c3)N(CC#N)C(=O)CO4)n2)c1` [II-11, N4-(4-Cyanomethyl-3-oxo-2H-benzo[1,4]oxazin-6-yl)-5-fluoro-N2-[3-(N-methylaminocarbonylmethyleneoxy)phenyl]-2,4-pyrimidinediamine], the negative logarithm of the IC50 (pIC50) was 7.55.

For the compound “N4-(3-Chloro-4-methoxyphenyl)-N2-[1-(2-(N-morpholinyl)ethylaminocarbonyl)-1H-indol-6-yl]-2,4-pyrimidinediamine [VI-3]”, the pIC50 was 6.19.

Take “5-Fluoro-N2-[2-(2-(N-morpholinyl)ethylaminocarbonyl)benzofuran-5-yl]-N4-[4-(2-propynyloxy)phenyl]-2,4-pyrimidinediamine [III-3]”: the pIC50 was 6.83.

`CNC(=O)COc1cccc(Nc2ncc(Br)c(Nc3ccc4c(c3)OCCO4)n2)c1` [II-1, 5-Bromo-N4-(3,4-ethylenedioxyphenyl)-N2-[3-(N-methylaminocarbonylmethyleneoxy)phenyl]-2,4-pyrimidinediamine]: the pIC50 was 7.09.
